The target of the assay is T1, PR (progesterone receptor) (Homo sapiens, UniProt P06401).
T1 sequence (P06401 1-933): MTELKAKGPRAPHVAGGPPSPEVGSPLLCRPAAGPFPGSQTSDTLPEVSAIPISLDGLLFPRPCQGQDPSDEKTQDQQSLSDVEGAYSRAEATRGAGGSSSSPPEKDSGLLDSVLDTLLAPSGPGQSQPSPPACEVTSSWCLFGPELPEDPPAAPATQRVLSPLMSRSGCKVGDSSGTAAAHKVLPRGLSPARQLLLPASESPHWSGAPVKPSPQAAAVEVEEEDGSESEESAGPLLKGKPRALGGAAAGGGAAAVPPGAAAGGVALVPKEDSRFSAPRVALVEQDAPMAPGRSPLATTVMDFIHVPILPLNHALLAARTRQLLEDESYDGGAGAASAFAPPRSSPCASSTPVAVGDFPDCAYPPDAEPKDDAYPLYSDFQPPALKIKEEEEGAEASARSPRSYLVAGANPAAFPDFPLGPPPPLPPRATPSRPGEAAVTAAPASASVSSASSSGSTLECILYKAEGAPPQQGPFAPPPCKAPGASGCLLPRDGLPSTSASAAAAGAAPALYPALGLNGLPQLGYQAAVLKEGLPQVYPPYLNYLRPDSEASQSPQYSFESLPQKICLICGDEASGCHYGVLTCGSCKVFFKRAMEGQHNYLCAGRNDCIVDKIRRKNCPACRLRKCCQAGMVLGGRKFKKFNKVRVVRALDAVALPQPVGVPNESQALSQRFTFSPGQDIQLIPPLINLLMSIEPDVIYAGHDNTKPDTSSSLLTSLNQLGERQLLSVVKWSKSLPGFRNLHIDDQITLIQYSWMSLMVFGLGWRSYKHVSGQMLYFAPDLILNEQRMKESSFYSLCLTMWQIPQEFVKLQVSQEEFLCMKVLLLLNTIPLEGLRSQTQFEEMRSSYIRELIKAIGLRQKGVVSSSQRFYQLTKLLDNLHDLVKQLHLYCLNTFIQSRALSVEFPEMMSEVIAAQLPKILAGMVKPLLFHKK
The experiment in a line: PR binding study. From the text:
The following abbreviations are used in Table II: MR, mineralocorticoid receptor; GR, glucocorticoid receptor; and PR, progesterone receptor.

For the compound `C[C@@H]1C[C@H]2[C@@H]3CCC4=CC(=O)C=C[C@]4(C)[C@@]3(F)[C@@H](O)C[C@]2(C)[C@@]1(O)C(=O)CO` [Dexamethasone, dexamethasone], the half-inhibitory concentration (IC50) (in general, the point on the concentration scale where inhibition reaches its midpoint) was > 1 µM.
